Assay results from article PMC7026882, “Macrofilaricidal Benzimidazole–Benzoxaborole Hybrids as an Approach to the Treatment of River Blindness: Part 2. Ketone Linked Analogs” (ACS Infectious Diseases, 2019).
Read-outs that look alike come from different tables or passages of the source.

How the values were obtained:
[1] = tested on: mammalian tubulin (G2/M arrest); assay: G2/M arrest assay, indicative of interaction with mammalian tubulin; assay type: cell-based
Excerpt: (§1) As summarized in Table 1, we were encouraged to find that the initial ketone analogs prepared, namely, 15 (6-linked) and 20 (5-linked), were quite active in an O. volvulus molting assay we used as a primary indicator of antiparasitic activity[30],[31] and were only weakly active in a G2/M arrest,[32] indicative of the interaction with mammalian tubulin. As described above, our hypothesis was to reduce Pgp efflux liability through elimination of the hydrogen-bond donor associated with the N–H of the amide linker, as this has been shown in the literature to be a contributor to recognition by Pgp.[33],[34] […] We were disappointed to find that the 5-linked analog 22 was poorly selective and the 6-linked analog 23 was only weakly active.

[2] = MDCK-MDR1 cell monolayer permeability assay; assay type: in vitro ADME; conditions: dog
Excerpt: as §1

MDCK-MDR1 cell monolayer = MDCK-MDR1 cell monolayer permeability assay; assay type: in vitro ADME
Excerpt: as §1

O. volvulus = O. volvulus molting assay; assay type: cell-based; conditions: Onchocerca volvulus; molting assay
Excerpt: as §1, with “active. […]” for “active.”
(§2) in comparison to the number of control larvae that had successfully molted. IC50 values were calculated using GraphPad Prism v6.0 (http://www.graphpad.com). See Bullman et al., PLoS
(§3) Negl. Trop. Dis., 2015, 9, e3534 for further details.
(§4) Adult Brugia malayi in vivo model procedure.
(§5) Gerbils (Meriones unguiculatus) were infected by transplantation of 10 male and 10 female adult Brugia malayi into the peritoneal cavity. Gerbils were acclimated for 7 days prior to treatment. Animals were dosed based on their body weight prior to each dosing. Animals were administered their doses at the same time each day and receive standard rodent laboratory diet and water ad libitum. Gerbils were humanely euthanized at the conclusion of each study.
(§6) Peritoneal counts of male and female adult B. malayi and visual condition of the peritoneum […]
(§7) L3 Brugia pahangi in vivo model procedure.
(§8) Male gerbils (Meriones unguiculatus) approximately 6 weeks of age (50-60 g) were purchased from Charles Rivers (USA, Kingston K62 Gerbils) and infected by intraperitoneal injection with 200 Brugia pahangi third-stage larvae (L3) per animal (Filariatech, Inc., Athens, GA). Gerbils were housed with no more than 5 animals per cage and maintained 9 months prior to treatment. All gerbils were dosed in accordance with their body weight determined prior to each dosing. Animals were administered their doses at the same time each day and are allowed to feed and drink ad libitum. Gerbils were euthanized following approved institutional protocols. Euthanized animals were weighed and examined for external and visceral pathologies. The adult Brugia worms were recovered by opening the body cavity and washing the peritoneal cavity with 100 mL of phosphate buffered saline. Male and female worms were counted using a dissecting microscope.
(§9) Litomosoides sigmodontis in vivo model procedure. 2
(§10) All animal experiments with L. sigmodontis were conducted at the Institute for Medical Microbiology, Immunology and Parasitology (IMMIP), University Hospital of Bonn, in accordance to the European Union animal welfare guidelines. All protocols were approved by the local authorities (Landesamt für Natur, Umwelt und Verbraucherschutz, Cologne, Germany (AZ 84- […]
(§11) Janvier (Saint-Berthevin, France) and were housed at the animal facility of the IMMIP in individually ventilated cages on a 12h light/dark cycle with food and water ad libidum. Mice were infected at 6-8 weeks of age via exposure to the natural mite vector Ornithonyssus bacoti

[3] = Metabolite ID studies, in vitro and in vivo; assay type: in vitro ADME; conditions: in vitro or in vivo experiments
Excerpt: However, the metabolism of flubendazole by the reduction of the ketone leads to short-lived clastogenic metabolites at low levels that may pose a minimal risk.[28]

[4] = Metabolic stability (Clint) in human microsomes; assay type: in vitro ADME
Excerpt: as §1

[5] = Tolerability of once daily dosing to gerbils over 7 days; assay type: in vivo
Excerpt: (§12) In addition, the concentrations achieved at these doses were well in excess of the O. volvulus IC50, a requirement for in vivo activity that we had hypothesized on the basis of earlier work in the amide-linked series.

Brugia pahangi = assay: In vivo efficacy in the L3 Brugia pahangi gerbil model; conditions: for Number of Worms Recovered, Avg Female Worms / Number of Worms Recovered, Avg Male Worms: PO, 100 mg/kg, recovery day 63
Description: For our in vivo model, gerbils were infected by injecting B. pahangi third-stage larvae (L3) that were subsequently allowed to develop to adult worms over several months. Once stable infections had been established, 21 was administered as a suspension via once-daily oral gavage at a dose of 100 mg/kg for 7, 14, or 28 days. All animals were maintained until day 63 after the start of dosing, at which time adult worms were recovered from the peritoneal cavity and microfilariae were quantified in blood samples. Flubendazole (5 mg/kg, SC × 5 days) was included as a positive control in this study. […]
as §2, §3, §4, §5, §6, §7, §8, §9, §10, §11

[6] = Pharmacokinetics in Mongolian gerbils; assay type: in vivo
Excerpt: as §12

## COC(=O)Nc1nc2ccc(C(=O)c3cccc4c3B(O)OC4)cc2[nH]1 [compound 21]
[1]
  IC50: > 38000 nM
[2]
  Papp: 56.6 ×10⁻⁶ cm/s
MDCK-MDR1 cell monolayer
  MDCK-MDR1 Papp (A-B): 56.6 ×10⁻⁶ cm/s
O. volvulus
  IC50: 100 nM
[3]
  metabolism in metabolite ID studies: have not observed a significant metabolism
[4]
  microsomal CLint: 5.9 µL/min/mg
[5]
  tolerability: well tolerated
Brugia pahangi; 100 mg/kg PO once daily for 14 days
  effective in killing female worms: 99%
Brugia pahangi; 100 mg/kg PO once daily for 28 days
  effective in killing female worms: 99%
Brugia pahangi; 100 mg/kg PO once daily for only 7 days
  effect on worms: very little effect
Brugia pahangi; 7 days, QD
  Number of Worms Recovered, Avg Female Worms: 13.0
  Number of Worms Recovered, Avg Male Worms: 25.2
Brugia pahangi; 14 days, QD
  Number of Worms Recovered, Avg Female Worms: 0.6
  Number of Worms Recovered, Avg Male Worms: 11.4
Brugia pahangi; 28 days QD
  Number of Worms Recovered, Avg Female Worms: 0.1
  Number of Worms Recovered, Avg Male Worms: 11.1
[6]; Mongolian gerbil, blood, 2 mg/kg, Table 3, IV, dose 2
  CLint scaled: 4.82 mL/min/kg
[6]; Table 3, IV, dose 2
  AUC0-last: 5950 ng·h/mL
  Cmax: 1560 ng/mL
[6]; Table 3, PO, dose 10
  AUC0-last: 61700 ng·h/mL
  Cmax: 5750 ng/mL
[6]; blood, 2 mg/kg, Mongolian gerbils, dose 2, IV, read-out: AUC0–24
  AUC(0-t): 5950 ng·h/mL
[6]; blood, 2 mg/kg, Mongolian gerbils, dose 2, IV, read-out: Cmax
  Cmax: 1560 ng/mL
[6]; blood, 2 mg/kg, Table 3, IV, dose 2, read-out: Vdss
  Vd: 3.19 L/kg
[6]; blood, 10 mg/kg, Mongolian gerbils, dose 10, PO, read-out: AUC0–24
  AUC(0-t): 61700 ng·h/mL
[6]; blood, 10 mg/kg, Mongolian gerbils, dose 10, PO, read-out: Cmax
  Cmax: 5750 ng/mL
[6]; blood, 10 mg/kg, Table 3, SC, dose 10, read-out: AUC0-last
  AUC(0-t): 35700 ng·h/mL
[6]; blood, 10 mg/kg, Table 3, SC, dose 10, read-out: Cmax
  Cmax: 3130 ng/mL
[6]; blood, 30 mg/kg, Table 3, PO, dose 30, read-out: AUC0-last
  AUC(0-t): 196000 ng·h/mL
[6]; blood, 30 mg/kg, Table 3, PO, dose 30, read-out: Cmax
  Cmax: 17200 ng/mL
[6]; blood, 60 mg/kg, Table 3, PO, dose 60, read-out: AUC0-last
  AUC(0-t): 361000 ng·h/mL
[6]; blood, 60 mg/kg, Table 3, PO, dose 60, read-out: Cmax
  Cmax: 26300 ng/mL
[6]; blood, 100 mg/kg, Table 3, PO, dose 100, read-out: AUC0-last
  AUC(0-t): 479000 ng·h/mL
[6]; blood, 100 mg/kg, Table 3, PO, dose 100, read-out: Cmax
  Cmax: 34500 ng/mL
[6]; blood, po, 10 mg/kg, Mongolian gerbils, dose 10, PO, read-out: bioavailability (%F)
  bioavailability: ~100%
[6]; blood, po, 10 mg/kg, Table 3, PO, dose 10, read-out: %F
  bioavailability: 100%
[6]; blood, sc, 10 mg/kg, Table 3, SC, dose 10, read-out: %F
  bioavailability: 100%
[6]; once daily dosing to gerbils over 7 days
  accumulation of the compound: no accumulation
[6]; oral dosing to gerbils, up to 100 mg/kg
  dose proportionality of exposure: dose proportional
